Measured values published in patent US8247437B2, “N-hydroxyamide derivatives and use thereof” (Merck Serono SA, priority 2004, dated 2012).
Like-named read-outs stand apart in the source and are kept apart here.

Legend:
metalloelastase (MMP-12) = metalloelastase (MMP-12) (Homo sapiens, UniProt P39900); assay: MMP-12 enzyme inhibition assay (coumarin-labelled peptide substrate McaPLGLDpaAR); type: biochemical
Experimental: (§1) Stock solutions were made up as follows: Assay Butter: 100 mM Tris-HCl pH 7.6 is containing 100 mM NaCl, 10 mM CaCl2, and 0.05% Brij 35.
(§2) Substrate: 0.4 mM McaPLGLDpaAR (from Bachem) (0.437 mg/ml) stock solution in 100% DMSO (stored at −20° C.). Dilute to 8 μM in assay butter.
(§3) Enzyme: Recombinant human 92 kDa gelatinase (MMP-9; APMA (4-aminophenyl mercuric acetate)-activated if necessary) appropriately diluted in assay butter.
(§4) Test Compounds were prepared initially as 10 mM compound solution in 100% DMSO, diluted to 1 mM in 100% DMSO, then serially diluted 3-fold in 100% DMSO across columns 1-10 of a 96-well microtitre plate Assay concentration range, 100 μM (column 1) to 5.1 nM (column 10).
(§5) The assay was performed in a total volume of 100 μL per well in 96-well microfilm plates. Activated enzyme (20 μL) was added to the wells followed by 20 μL of assay butter. Appropriate concentrations of test compounds dissolved in 10 μL of DMSO were then added followed by 50 μL of McaPLGLDpaAR (8 μM, prepared by dilution of DMSO stock in assay butter). For each as say ten concentrations of test compound were examined in duplicate. Control wells lack either enzyme or test compound. The reactions were incubated at 37° C. for 2 hours. The fluorescence at 405 nm was measured immediately with an SLT Fluostar fluorometer (SL T Labinstruments GmbH, Grödig, Austria) using 320 nm excitation, without stopping the reaction.
(§6) The effect of the test compound was determined from the dose response curve generated by the 10 duplicate concentrations of inhibitor. The IC50 (the concentration of compound required to give a 50% decrease in enzyme activity) was obtained by fitting data to the equation, Y=a+((b−a)/(1+(c/X)^d)). (Y=inhibition achieved for a particular dose; X=the dose in nM; a=minimum y or zero % inhibition; b=maximum y or 100% inhibition; c=is the IC50; d=is the slope). The result was rounded to one significant figure.
Compounds of the invention were tested for inhibitory activity against metalloelastase (MMP-12) in an assay using a coumarin-labelled peptide substrate, (7-methoxycoumarin-4-yl)acetyl-Pro-Leu-Gly-Leu-(3-[2,4-dinitrophenyl]-L-2,3-diaminopropionyl)-Ala-Arg-NH2 (McaPLGLDpaAR) (Knight et al, 1992, above). The protocol for this assay was as described for the MMP-9 assay above.

gelatinase A (MMP-2) = biological target: T1, gelatinase A (MMP-2) (Homo sapiens, UniProt P08253); assay: MMP-2 enzyme inhibition assay (coumarin-labelled peptide substrate McaPLGLDpaAR); type: biochemical
T1 sequence (P08253 110-660): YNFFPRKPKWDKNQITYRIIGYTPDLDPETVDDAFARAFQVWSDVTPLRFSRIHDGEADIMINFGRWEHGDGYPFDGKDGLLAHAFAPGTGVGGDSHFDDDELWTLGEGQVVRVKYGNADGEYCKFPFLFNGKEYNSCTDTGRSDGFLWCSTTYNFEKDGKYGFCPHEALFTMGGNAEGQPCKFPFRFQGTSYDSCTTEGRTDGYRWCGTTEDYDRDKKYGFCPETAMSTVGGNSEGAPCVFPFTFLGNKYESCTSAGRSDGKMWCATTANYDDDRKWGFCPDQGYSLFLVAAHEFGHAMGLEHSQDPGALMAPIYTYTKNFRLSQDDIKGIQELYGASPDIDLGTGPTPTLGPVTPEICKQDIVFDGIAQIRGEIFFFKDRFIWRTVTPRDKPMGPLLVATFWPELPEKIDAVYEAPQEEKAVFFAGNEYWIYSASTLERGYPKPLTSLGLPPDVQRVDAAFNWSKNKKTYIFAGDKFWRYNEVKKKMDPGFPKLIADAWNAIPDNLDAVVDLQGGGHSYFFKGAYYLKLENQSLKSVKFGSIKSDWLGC
Experimental: as §1, §2, §3, §4, §5, §6
(§7) Compounds of the invention were tested for inhibitory activity against gelatinase A (MMP-2) in an assay using a coumarin-labelled peptide substrate, (7-methoxycoumarin-4-yl)acetyl-Pro-Leu-Gly-Leu-(3-[2,4-dinitrophenyl]-L-2,3diaminopropionyl)-Ala-Arg-NH2 (Mca PLGLDpaAR) (Knight et al, 1992, above). The protocol for this assay was as described for the MMP-9 assay above.

[1] = test system: IL-2-induced peritoneal recruitment of lymphocytes; assay: IL-2-induced peritoneal recruitment of lymphocytes; type: in vivo, C3H/HEN mice; conditions: mice, 15 min prior to IL-2, cells collected 24 h after IL-2
Experimental: Administration of IL-2 intraperitoneally causes migration of lymphocytes into the intraperitoneal cavity. This is a model for the cellular migration that occurs during inflammation.
C3H/HEN mice (Elevage Janvier, France) were intraperitoneally injected with IL-2 (Serono Pharmaceutical Research Institute, 20 μg/kg, in saline).
Compounds of the invention were suspended in 0.5% carboxymethylcellulose (CMC)/0.25% tween-20 and were administered by s.c. or p.o. route (10 ml/kg) 15 min prior to administration of IL-2.
Twenty-four hours after administration of IL-2, peritoneal white blood cells were collected by 3 successive lavages of the peritoneal cavity with 5 ml phosphate buffered saline (PBS)-1 mM EDTA (+4° C.). The suspension was centrifuged (1700 g×10 min at +4° C.). The resulting pellet was suspended in 1 ml PBS-1 mM EDTA.
Lymphocytes were identified and counted using a Beckman/Coulter counter.
The animals were divided into 6 groups (6 mice each group):
Group 1: (baseline) received 0.5% CMC/0.25% tween-20 (vehicle of compound of the invention) and saline (vehicle of IL-2);
Group 2: (control IL-2) received 0.5% CMC/0.25% tween-20 and injection of IL-2;
Group 3: Experimental group (Compound of the invention Dose 1) received a compound of the invention and injection of IL-2;
Group 4: Experimental group (Compound of the invention Dose 2) received a compound of the invention and injection of IL-2;
Group 5: Experimental group (Compound of the invention Dose 3) received a compound of the invention and injection of IL-2;
Group 6: Reference group received reference compound dexamethasone and injection of IL-2.
Inhibition of lymphocyte recruitment was calculated as follows:
Where Ly 1=Number of lymphocytes in group 1 (E3/μl), Ly 2=Number of lymphocytes in group 2 (E3/μl), Ly X=Number of lymphocytes in group X (3-5) (E3/μl).

collagenase (MMP-1) = biological target: T2, collagenase (MMP-1) (Homo sapiens, UniProt P03956); assay: MMP-1 enzyme inhibition assay (coumarin-labelled peptide substrate McaPLGLDpaAR); type: biochemical
T2 sequence (P03956 100-469): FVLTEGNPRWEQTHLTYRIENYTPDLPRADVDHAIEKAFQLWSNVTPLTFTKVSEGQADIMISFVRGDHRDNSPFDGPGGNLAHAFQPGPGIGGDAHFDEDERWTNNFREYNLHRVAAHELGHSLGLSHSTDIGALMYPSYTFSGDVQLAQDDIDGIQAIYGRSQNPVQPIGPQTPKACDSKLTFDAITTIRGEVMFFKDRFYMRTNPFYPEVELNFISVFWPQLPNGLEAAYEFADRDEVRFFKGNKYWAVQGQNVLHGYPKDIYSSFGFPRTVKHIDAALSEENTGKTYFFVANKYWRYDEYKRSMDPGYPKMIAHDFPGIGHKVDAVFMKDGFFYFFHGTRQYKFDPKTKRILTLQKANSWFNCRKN
Experimental: as §1, §2, §3, §4, §5, §6
as §7, with “collagenase (MMP-1)” for “gelatinase A (MMP-2)”

[2] = biological target: 92 kDa gelatinase (MMP-9) (Homo sapiens, UniProt P14780); assay: MMP-9 enzyme inhibition assay (coumarin-labeled peptide substrate McaPLGLDpaAR); type: biochemical
Chain of 92 kDa gelatinase (MMP-9) (P14780 107-707 limits assumed): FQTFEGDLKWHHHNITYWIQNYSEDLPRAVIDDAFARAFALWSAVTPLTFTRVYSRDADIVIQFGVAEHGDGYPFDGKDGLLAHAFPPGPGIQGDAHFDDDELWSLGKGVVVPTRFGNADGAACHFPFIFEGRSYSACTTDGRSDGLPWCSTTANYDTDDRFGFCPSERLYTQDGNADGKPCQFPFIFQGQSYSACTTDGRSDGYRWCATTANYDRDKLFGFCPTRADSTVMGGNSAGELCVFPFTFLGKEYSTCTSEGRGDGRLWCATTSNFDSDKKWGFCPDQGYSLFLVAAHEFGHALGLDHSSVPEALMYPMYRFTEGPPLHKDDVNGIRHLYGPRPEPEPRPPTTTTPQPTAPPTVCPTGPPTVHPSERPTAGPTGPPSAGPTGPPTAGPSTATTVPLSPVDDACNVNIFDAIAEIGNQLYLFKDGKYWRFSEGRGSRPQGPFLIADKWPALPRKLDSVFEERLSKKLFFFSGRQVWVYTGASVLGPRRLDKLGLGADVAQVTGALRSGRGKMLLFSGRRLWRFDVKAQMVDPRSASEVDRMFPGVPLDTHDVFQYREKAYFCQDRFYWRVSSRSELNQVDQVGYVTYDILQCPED
Experimental: Compounds of the invention were tested for inhibitory activity against 92 kDa gelatinase (MMP-9) in an assay using a coumarin-labeled peptide substrate, (7-methoxycoumarin-4-yl)acetyl-Pro-Leu-Gly-Leu-(3-[2,4-dinitrophenyl]-L-2,3diaminopropionyl)-Ala-Arg-NH2 (McaPLGLDpaAR) (Knight et al, FEBS Lett. 1992; 263-266).
as §1, §2, §3, §4, §5, §6

[3] = Table 1, compounds of Formula (I), read-out: MMP-12 IC50
[4] = Table 1, compounds of Formula (I), read-out: MMP-2 IC50
[5] = dose 1 mg/kg po, Table 3, Formula (I)
[6] = Table 1, compounds of Formula (I), read-out: MMP-1 IC50
[7] = Table 1, compounds of Formula (I), read-out: MMP-9 IC50
[8] = dose 1 mg/kg po, Table 4, Formula (VI)

Chain of metalloelastase (MMP-12) (P39900 106-470): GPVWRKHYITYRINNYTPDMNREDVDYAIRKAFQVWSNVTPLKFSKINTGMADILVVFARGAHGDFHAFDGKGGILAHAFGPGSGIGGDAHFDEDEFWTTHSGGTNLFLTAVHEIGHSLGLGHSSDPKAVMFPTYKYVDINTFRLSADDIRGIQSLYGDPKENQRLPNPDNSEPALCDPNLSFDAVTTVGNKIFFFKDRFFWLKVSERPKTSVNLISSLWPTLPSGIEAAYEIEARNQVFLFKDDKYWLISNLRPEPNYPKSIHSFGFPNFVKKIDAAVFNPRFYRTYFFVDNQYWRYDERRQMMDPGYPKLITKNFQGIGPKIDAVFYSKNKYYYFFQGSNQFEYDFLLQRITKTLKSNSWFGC

Row | Structure (SMILES) | IC50 (metalloelastase (MMP-12); [3]) [µM] | IC50 (gelatinase A (MMP-2); [4]) [µM] | % inhibition of IL-2-induced peritoneal recruitment of lymphocytes [1, 5] [%] | IC50 (collagenase (MMP-1); [6]) [µM] | IC50 [2, 7] [µM] | % inhibition of IL-2-induced peritoneal recruitment of lymphocytes [1, 8] [%] | other results
1 | CCOc1ccc(CCCC(C(=O)N2CCN(c3ccccn3)C[C@H]2C)[C@H](O)C(=O)NO)cc1 (mixture of isomers) [Example 6, (2S,3S)-6-(4-ethoxyphenyl)-N,2-dihydroxy-3-{[(2R)-2-methyl-4-pyridin-2-ylpiperazin-1-yl]-carbonyl}hexanamide] | 0.02 | 0.008 | 46 | > 5 | 0.022 | – | % inhibition of IL-2-induced peritoneal recruitment of lymphocytes ([1]; dose 3 mg/kg po, Table 3, Formula (I)): 65%
2 | CC(C)C[C@H](C(=O)N1CCN(c2ccccn2)C[C@H]1C)[C@H](O)C(=O)NO (single isomer, unassigned) [Example 4] | 0.017 | 0.004 | 39 | 0.301 | 0.012 | – | –
3 | CCOc1ccc(CCC[C@@H](C(=O)N2CCC(Nc3ccccc3)CC2)[C@H](O)C(=O)NO)cc1 [Example 20, (2S,3R)-3-[(4-anilinopiperidin-1-yl)carbonyl]-6(4-ethoxyphenyl)-N,2-dihydroxyhexanamide] | – | – | – | – | – | 38 | IC50 (metalloelastase (MMP-12)): 0.029 µM; IC50 (gelatinase A (MMP-2)): 0.082 µM; IC50 (collagenase (MMP-1)): > 5 µM; IC50 [2]: 0.037 µM
4 | CCOc1ccc(CCC[C@@H](C(=O)N2CCN(CCN3CCOCC3)CC2)[C@H](O)C(=O)NO)cc1 [Example 37, (2S,3R)-6-(4-ethoxyphenyl)-N,2-dihydroxy-3-{[4-(2-morpholin-4-ylethyl)piperazin-1-yl]-carbonyl}hexanamide] | – | – | – | – | – | 42 | IC50 (metalloelastase (MMP-12); Table 2, compounds of Formula (VI), read-out: MMP-12 IC50): 0.023 µM; IC50 (gelatinase A (MMP-2); Table 2, compounds of Formula (VI), read-out: MMP-2 IC50): 0.065 µM; IC50 (collagenase (MMP-1); Table 2, compounds of Formula (VI), read-out: MMP-1 IC50): > 5 µM; IC50 ([2]; Table 2, compounds of Formula (VI), read-out: MMP-9 IC50): 0.052 µM
5 | CCOc1ccc(CCC[C@@H](C(=O)N2C[C@@H]3C[C@H]2CN3c2ccc(F)cc2)[C@H](O)C(=O)NO)cc1 [Example 47, (2S,3R)-6-(4-ethoxyphenyl)-3-{[(1S,4S)-5-(4-fluorophenyl)-2,5-diazabicyclo[2.2.1]hept-2-yl]carbonyl}-N,2-dihydroxyhexanamide] | – | – | – | – | – | 41 | –
6 | CC(C)C[C@H](C(=O)N1CCN(c2ccc(-c3ccccc3)cc2)C[C@H]1C)[C@H](O)C(=O)NO [Example 53, (2S,3S)-3-{[(2R)-4-biphenyl-4-yl-2-methylpiperazin-1-yl]carbonyl}-N,2-dihydroxy-5-methylhexanamide] | 0.005 | 0.0075 | 61 | > 5 | 0.007 | – | –
7 | CC(C)C[C@H](C(=O)N1CC=C(c2ccccc2)CC1)[C@@H](O)C(=O)NO [Example 61, (2R,3S)-N,2-dihydroxy-5-methyl-3-[(4-phenyl-3,6-dihydropyridin-1(2H)-yl)carbonyl]hexanamide] | 0.002 | 0.008 | 67 | > 5 | 0.048 | – | –
